Test results published in patent US20150140015A1, “METHODS AND PHARMACEUTICAL COMPOSITIONS FOR THE TREATMENT OF PANCREATIC CANCER” (INSERM (Institut National de la Sante et de la Recherche …, priority 2013, published 2015).

What was measured:
[1] = tested on: parental HPAF-II cells xenografted in nude mice; test: Tumorigenicity assay: parental HPAF-II cells xenografted in nude mice; assay type: in vivo; settings: daily treatment with 1 mole orexin-A/kg (so in the source)
Procedure: FIG. 8A-C. Effect of daily inoculation of orexin-A on the growth of tumors developed by xenografting OX1R expressing recombinant HPAF-II cells in nude mice. Parental HPAF-II (A) or recombinant OX1R/HPAF-II/cells (B) were inoculated in the flank of nude mice at day 0. Mice were injected daily intraperitoneally with 100 μl of 1 μmoles of orexin-A/Kg solutions starting at day 0 for both cell lines (◯) or day 28 for OX1R/HPAF-II cells (▴) or with 100 μl of PBS ([…]) for controls. The development of tumors was followed by caliper measurement; C. Formalin-fixed xenografted HPAF-II or OX1R/HPAF-II tumors from nude mice intraperitoneally injected daily or not with 1 μmoles/Kg orexin-A were analyzed by cleaved caspase-3 immunostaining. Cleaved caspase-3 positive cells were counted in 10 different fields, each comprising 500 tumoral cells, in the presence (black bars) or absence (white bars) of 50 days orexin-A treatment. Data are the means±SE of 6 tumors in each group; *** p<0.01 versus control.
Control mice received PBS.

[2] = tested on: AsPC-1 cells; test: Cell growth of AsPC-1 cells (cell counting); assay type: cell-based, human; settings: Example 1; Orexin-A treatment of the OX1R-expressing AsPC-1 cell line
Procedure: FIG. 9. Effect of Orexin-B anti-OX1R antibodies on cell growth of AsPC-1 cells. Cells were incubated with 0.1 μM of OxB or antibodies for 48 h in culture medium and then cells were counted in order to estimate the cellular growth.
The aims of this study were: 1/ to investigate the presence of OX1R in human PAC cell lines and to analyze orexin-A effects in relation to apoptosis; 2/ to develop an in vivo heterotopic xenograft model from the cell lines expressing OX1R, for the study of tumor growth in response to Orexin-A. The expression of OX1R was studied at mRNA (RT-PCR), proteins (immunocytochemistry) and functional levels in 3 PAC cell lines (AsPC-1, HPAF-II and SW1990). The development of an animal model (heterotopic xenograft) from the cell line expressing OX1R, has allowed studying the effect of Orexin-A in tumor growth. Resected tumors were analyzed by immunohistochemistry. Only AsPC-1 cell line expresses OX1R.
The development of antibodies directed against OX1R were produced by a phage display strategy and the antibody selection was performed by using HEK and HEK stably expressing OX1R (HEK-OX1R) cell lines. […] Cells were incubated with 0.1 μM of OxB or antibodies for 48 h in culture medium and then cells were counted in order to estimate the cellular growth. […]

[3] = tested on: AsPC-1 cells; test: Activated caspase-3 immunostaining in AsPC-1 cells; assay type: cell-based, human; settings: 1 μM orexin-A, 48 hr
Procedure: FIG. 4A-C. Effect of orexin-A on apoptosis in AsPC-1 cells. A, SHP-2 protein tyrosine phosphatase inhibitor, NSC-87877, blocks orexin-induced apoptosis. AsPC-1 cells were challenged with (black bars) or without (white bars) 1 μM orexin-A for 48 hr in the absence or presence of NSC-87877 (50 μM). Apoptosis was measured by determination of annexin V-PE binding, and results are expressed as the percentage of apoptotic cells; B and C: Indirect immunostaining of activated caspase-3 in AsPC-1 cells in the presence or absence of orexin-A. Paraformaldehyde-fixed AsPC-1 cells were challenged with (orexin-A) or without (basal) 1 μM orexin-A for 48 hr. Activated caspase-3 immunostaining is shown in B and scored in C. […]
(§1) After dewaxing, rehydrating tumor paraffin sections, and antigen retrieval by pretreatment with high temperature at pH 9, immunohistochemical procedures were carried out using an automated immunohistochemical stainer according to the manufacturer's guidelines (Bond-Max slide stainer, Menarini, Leica Microsystems). […] OX1R immunostaining was evaluated by two investigators (TV and AC) by calculating a score (0-300) obtained by multiplying the intensity (negative, 0; weak, 1; moderate, 2; and strong, 3) by the percentage of stained cells. The pattern of expression (cytoplasmic, membranous, and nuclear) was also recorded, and a mean score was calculated for each tumor. […]

[4] = tested on: parental HPAF-II cells; test: Activated caspase-3 immunostaining in parental HPAF-II cells; assay type: cell-based, human; settings: 1 μM orexin-A, 48 hr
Procedure: FIGS. 5A and B. Effect of orexin-A on apoptosis in OX1R expressing recombinant OX1R/HPAF-II cells. A, Parental HPAF-II and recombinant OX1R/HPAF-II cells were challenged with (black bars) or without (white bars) 1 μM orexin-A for 48 hr in the absence or presence of the SHP-2 protein tyrosine phosphatase inhibitor, NSC-87877 (50 μM). Apoptosis was measured by determination of annexin V-PE binding. Results are expressed as the percentage of apoptotic cells, and are the means±SE of three separate experiments. ***p<0.001; ns, non-significant; B, paraformaldehyde-fixed HPAF-II cells and recombinant OX1R/HPAF-II cells were challenged with or without (Basal) 1 μM orexin-A for 48 hr. […]
as §1

“orexin-A: 33 amino acid hypothalamic neuropeptide, OX1R agonist, SEQ ID NO:2; peptide from GL Biochemicals” was tested, and the tumor growth inhibition [1] was “unable to promote tumor growth inhibition”, the cell growth inhibition [2] was 32% and the “cleavage and activation of caspase 3” value [3] was “induced the cleavage and activation of caspase 3”. For the same substance, the caspase-3 activation [4] was “no activation”.
